# Source: patent US9186344B2, “Glycogen or polysaccharide storage disease treatment method” (Baylor Research Institute, priority 2004, dated 2015)
# Experiments:
# Assay type in all cases: in vivo, human
# [1] = tested on: Adult-Onset Glycogen Storage Disease II (Pompe's) patient; experiment: Plasma amino acids during initiation of anaplerotic therapy (C7 diet), Example 1 patient; conditions: for Plasma ASPARTATE: normal (0-10); for Plasma CITRULLINE: normal (11-51); for Plasma ARGININE: normal (20-122); for Plasma TRYPTOPHAN: normal (23-86); for Plasma TYROSINE: normal (30-100); for Plasma PHENYLALANINE: normal (35-83); for Plasma ORNITHINE: normal (36-118); for Plasma ISOLEUCINE: normal (39-119); for Plasma LEUCINE: normal (60-204); for Plasma VALINE: normal (108-295); for Plasma ALANINE: normal (162-572); for Plasma GLUTAMINE: normal (424-720); for Plasma Total Amino Acids: normal (1540-4415)
# Source text: Clinical and Biochemical Course on Therapy. […] Esophageal dysmotility was documented. A percutaneous endoscopic gastrostomy (PEG) was placed on the sixth hospital day.
# The diet was based on vivonex and ˜1500 Kcal was given by nasogastric tube, on admission. […] Total caloric intake was raised from ˜1500 to 1700 to 1900 per day with these dietary changes during […] 33 day admission.
# The levels of Alanine and Glutamine were low compared to the adult normal ranges. While the levels of the branched-chain amino acids (BCAA=Leucine, Valine, & Isoleucine) were within the adult normal ranges. The reduced levels of Alanine and Glutamine have been observed often in this disease and has led to the high protein—low carbohydrate diet and/or alanine supplementation. […] Glutamine increased nearly 2-fold as did the branched chain amino acids (BCAAs). The levels of these amino acids remained in the normal range while receiving the C7 diet. However, the diet was interrupted on day 4 & 5 while awaiting placement of the PEG for gastrostomy feeding. The levels of each of these amino acids promptly fell to admission levels (Table 2: 65 & 84 hour samples). With resumption of the diet via gastrostomy, all levels returned to (or above) the normal ranges in 24 hours. These amino acid levels remained normal on this odd-carbon triglyceride diet therapy.
# [2] = tested on: adult-onset GSD II patient; experiment: Urinary organic acids / blood acylcarnitines, Example 1 patient; conditions: C7 increased from 26 to 40% of total caloric intake (1.0 to 2.0 gm/Kg/day)
# Method: (§1) Organic Acids may be measured as follows. Organic acids in urine specimens are determined with isolation by Liquid Partition Chromatography (LPC) and quantitative Gas Chromatography-Mass Spectrometry (GCMS) using an internal standard. The specimen is derivatized to form pentafluorobenzyl oximes (PFBO) of oxo-acids and the organic acids isolated by Liquid Partition chromatography on silicic acid hydrated with dilute sulfuric acid and eluted with mixtures of tert-Amyl alcohol and chloroform. After drying, the organic acids are derivatized to form volatile trimethylsilyl (TMS) derivatives for separation by capillary Gas Chromatography (GC) with temperature programming. Detection is by Mass Spectrometry (MS) with identification of the organic acids by their mass spectra. Organic acids are quantified by peak areas of reconstructed ion chromatograms with internal standards and calibration curves.
# Acylcarnitine Profiles. […] An automated sample introduction system delivers the samples to the electrospray tandem mass spectrometer (ESI-MS/MS) operating in the multiple channel analysis mode in which acylcarnitines are identified, profiled, and quantified with stable isotopically labeled internal standards. This test also provides quantification of free, sum of acylcarnitines, and total carnitine levels. […]
# GSDII patient [3] = experiment: Clinical course on triheptanoin diet, Example 2 patient
# Source text: Clinical Course. Following informed consent, the patient agreed to enter an approved IRB Protocol for dietary therapy with triheptanoin oil. […] Maximal inspiratory and expiratory pressures were 60 cm of water. […] And pO2=62.
# The oral diet consisted of 2900 Kcal on admission. […] Total caloric intake was maintained at ˜2800 per day during his 30 day admission.
# Initially, the patient required assistance and supervision with grooming, upper and lower extremity dressing, bathing, and toileting. The patient also required maximal assistance with ambulation and transfers from bed to wheelchair. […] They continued to require supervision, but without assistance, with transfers from bed to wheelchair and to toilet and shower. They had clearly made improvements in strength and endurance with exercise.
# GSDII patient [4] = experiment: Urinary organic acids, blood acylcarnitines and plasma amino acids, Example 2 patient; conditions: thirteen hours after initiating the C7 diet
# Method: as §1
# Acylcarnitine Profiles. Acylcarnitines and carnitine levels in dried blood spots (dbs), plasma and amniotic fluid by automated electrospray tandem mass spectrometry Acylcarnitines are extracted from blood spots, plasmas and amniotic fluid with methanol containing stable isotopically labeled internal standards. The extract is derivatized to form butyl esters. An automated sample introduction system delivers the samples to the electrospray tandem mass spectrometer (ESI-MS/MS) operating in the multiple channel analysis mode in which acylcarnitines are identified, profiled, and quantified with stable isotopically labeled internal standards. This test also provides quantification of free, sum of acylcarnitines, and total carnitine levels.
# Citrate supplementation was continued throughout the treatment.
# [5] = thirteen hours after initiating the C7 diet
smiles,measurement,setting,value
"CCCCCCC(=O)OCC(COC(=O)CCCCCC)OC(=O)CCCCCC [C7, triheptanoin]",Plasma ASPARTATE,"[1]; 13 hrs, C7 = 1.0 gm/Kg",44 µM
same,Plasma CITRULLINE,"[1]; 13 hrs, C7 = 1.0 gm/Kg",1 µM
same,Plasma ARGININE,"[1]; 13 hrs, C7 = 1.0 gm/Kg",96 µM
same,Plasma TRYPTOPHAN,"[1]; 13 hrs, C7 = 1.0 gm/Kg",121 µM
same,Plasma TYROSINE,"[1]; 13 hrs, C7 = 1.0 gm/Kg",110 µM
same,Plasma PHENYLALANINE,"[1]; 13 hrs, C7 = 1.0 gm/Kg",101 µM
same,Plasma ORNITHINE,"[1]; 13 hrs, C7 = 1.0 gm/Kg",78 µM
same,Plasma ISOLEUCINE,"[1]; 13 hrs, C7 = 1.0 gm/Kg",81 uM/L
same,Plasma LEUCINE,"[1]; 13 hrs, C7 = 1.0 gm/Kg",154 uM/L
same,Plasma VALINE,"[1]; 13 hrs, C7 = 1.0 gm/Kg",333 uM/L
same,Plasma ALANINE,"[1]; 13 hrs, C7 = 1.0 gm/Kg",551 uM/L
same,Plasma GLUTAMINE,"[1]; 13 hrs, C7 = 1.0 gm/Kg",827 uM/L
same,Plasma Total Amino Acids,"[1]; 13 hrs, C7 = 1.0 gm/Kg",3673 µM
same,Plasma ASPARTATE,"[1]; 41 hrs, C7 = 1.0 gm/Kg",112 µM
same,Plasma CITRULLINE,"[1]; 41 hrs, C7 = 1.0 gm/Kg",43 µM
same,Plasma ARGININE,"[1]; 41 hrs, C7 = 1.0 gm/Kg",93 µM
same,Plasma TRYPTOPHAN,"[1]; 41 hrs, C7 = 1.0 gm/Kg",43 µM
same,Plasma TYROSINE,"[1]; 41 hrs, C7 = 1.0 gm/Kg",62 µM
same,Plasma PHENYLALANINE,"[1]; 41 hrs, C7 = 1.0 gm/Kg",156 µM
same,Plasma ORNITHINE,"[1]; 41 hrs, C7 = 1.0 gm/Kg",163 µM
same,Plasma ISOLEUCINE,"[1]; 41 hrs, C7 = 1.0 gm/Kg",138 uM/L
same,Plasma LEUCINE,"[1]; 41 hrs, C7 = 1.0 gm/Kg",266 uM/L
same,Plasma VALINE,"[1]; 41 hrs, C7 = 1.0 gm/Kg",384 uM/L
same,Plasma ALANINE,"[1]; 41 hrs, C7 = 1.0 gm/Kg",450 uM/L
same,Plasma GLUTAMINE,"[1]; 41 hrs, C7 = 1.0 gm/Kg",424 uM/L
same,Plasma Total Amino Acids,"[1]; 41 hrs, C7 = 1.0 gm/Kg",4160 µM
same,Plasma ASPARTATE,"[1]; 108 hrs, C7 = 1.5 gm/Kg",50 µM
same,Plasma CITRULLINE,"[1]; 108 hrs, C7 = 1.5 gm/Kg",35 µM
same,Plasma ARGININE,"[1]; 108 hrs, C7 = 1.5 gm/Kg",102 µM
same,Plasma TRYPTOPHAN,"[1]; 108 hrs, C7 = 1.5 gm/Kg",40 µM
same,Plasma TYROSINE,"[1]; 108 hrs, C7 = 1.5 gm/Kg",56 µM
same,Plasma PHENYLALANINE,"[1]; 108 hrs, C7 = 1.5 gm/Kg",90 µM
same,Plasma ORNITHINE,"[1]; 108 hrs, C7 = 1.5 gm/Kg",122 µM
same,Plasma ISOLEUCINE,"[1]; 108 hrs, C7 = 1.5 gm/Kg",144 uM/L
same,Plasma LEUCINE,"[1]; 108 hrs, C7 = 1.5 gm/Kg",238 uM/L
same,Plasma VALINE,"[1]; 108 hrs, C7 = 1.5 gm/Kg",304 uM/L
same,Plasma ALANINE,"[1]; 108 hrs, C7 = 1.5 gm/Kg",307 uM/L
same,Plasma GLUTAMINE,"[1]; 108 hrs, C7 = 1.5 gm/Kg",584 uM/L
same,Plasma Total Amino Acids,"[1]; 108 hrs, C7 = 1.5 gm/Kg",3568 µM
same,Plasma ASPARTATE,"[1]; 132 hrs, C7 = 1.5 gm/Kg",42 µM
same,Plasma CITRULLINE,"[1]; 132 hrs, C7 = 1.5 gm/Kg",25 µM
same,Plasma ARGININE,"[1]; 132 hrs, C7 = 1.5 gm/Kg",97 µM
same,Plasma TRYPTOPHAN,"[1]; 132 hrs, C7 = 1.5 gm/Kg",40 µM
same,Plasma TYROSINE,"[1]; 132 hrs, C7 = 1.5 gm/Kg",46 µM
same,Plasma PHENYLALANINE,"[1]; 132 hrs, C7 = 1.5 gm/Kg",84 µM
same,Plasma ORNITHINE,"[1]; 132 hrs, C7 = 1.5 gm/Kg",95 µM
same,Plasma ISOLEUCINE,"[1]; 132 hrs, C7 = 1.5 gm/Kg",128 uM/L
same,Plasma LEUCINE,"[1]; 132 hrs, C7 = 1.5 gm/Kg",220 uM/L
same,Plasma VALINE,"[1]; 132 hrs, C7 = 1.5 gm/Kg",269 uM/L
same,Plasma ALANINE,"[1]; 132 hrs, C7 = 1.5 gm/Kg",277 uM/L
same,Plasma GLUTAMINE,"[1]; 132 hrs, C7 = 1.5 gm/Kg",519 uM/L
same,Plasma Total Amino Acids,"[1]; 132 hrs, C7 = 1.5 gm/Kg",3296 µM
same,time to restoration of Alanine and Glutamine deficits,"[1]; FIG. 5, Triheptanoin diet only",≤ 13 h
same,time for amino acid levels to return to (or above) normal ranges,[1]; after resumption of the diet via gastrostomy,≤ 24 h
same,increase of plasma Glutamine,[1]; [5],~2 fold
same,increase of plasma branched chain amino acids (BCAAs),[1]; [5],~2 fold
same,increase of plasma alanine level,[1]; thirteen hours after initiating the C7 diet by nasogastric tube,4 fold
same,propionyl overload from the metabolism of heptanoate,[2],without any evidence for propionyl overload
same,increase in total vital capacity,"GSDII patient [3]; at discharge compared to admission, diet plus physical therapy",700 mL
same,functional status at discharge,"GSDII patient [3]; intensive physical therapy and diet, 30 day admission","independent with grooming, upper and lower extremity dressing, toileting, and locomotion with a manual wheelchair"
same,increase of plasma BCAA's,GSDII patient [4],~2 fold
same,increase of plasma Glutamine,GSDII patient [4],~2 fold
same,increase of plasma alanine level,GSDII patient [4],4 fold
